In PubChem BioAssay AID1918957 (Molecular Pharmacology Branch, DTP, NCI, 2023):

Tested on: NCI-H1876 complex spheroid viability
Test: Anticancer human tumor NCI-H1876 cell line growth inhibition [LSD1];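 further: spheroids exposed to compounds for one week before readout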;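 on viability, T/C: 100% = DMSO vehicle-treated spheroids so lower means fewer viable cells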
Details: for IC50: curve of first compound; for viability, T/C: stronger effect = lower value
In short: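 Drug combinations with the LSD1 inhibitor iadademstat tested on tumor cells co-cultured as spheroids with endothelial cells and mesenchymal stem cells. Concentrations descended in half-log increments from clinical Cmax or 10 microM.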

[1] = second compound 0.1 µM, first compound 0.00316 µM
[2] = second compound 0.1 µM, first compound 0.01 µM
[3] = second compound 0.1 µM, first compound 0.0316 µM
[4] = second compound 0.1 µM, first compound 0.1 µM
[5] = second compound 0.1 µM, first compound 0.316 µM
[6] = second compound 0.1 µM, first compound 1 µM
[7] = second compound 0.316 µM, first compound 0.00316 µM
[8] = second compound 0.316 µM, first compound 0.01 µM
[9] = second compound 0.316 µM, first compound 0.0316 µM
[10] = second compound 0.316 µM, first compound 0.1 µM
[11] = second compound 0.316 µM, first compound 0.316 µM
[12] = second compound 0.316 µM, first compound 1 µM
[13] = second compound 1 µM, first compound 0.00316 µM
[14] = second compound 1 µM, first compound 0.01 µM
[15] = second compound 1 µM, first compound 0.0316 µM
[16] = second compound 1 µM, first compound 0.1 µM
[17] = second compound 1 µM, first compound 0.316 µM
[18] = second compound 1 µM, first compound 1 µM
[19] = second compound 3.16 µM, first compound 0.00316 µM
[20] = second compound 3.16 µM, first compound 0.01 µM
[21] = second compound 3.16 µM, first compound 0.0316 µM
[22] = second compound 3.16 µM, first compound 0.1 µM
[23] = second compound 3.16 µM, first compound 0.316 µM
[24] = second compound 3.16 µM, first compound 1 µM
[25] = second compound 10 µM, first compound 0.00316 µM
[26] = second compound 10 µM, first compound 0.01 µM
[27] = second compound 10 µM, first compound 0.0316 µM
[28] = second compound 10 µM, first compound 0.1 µM
[29] = second compound 10 µM, first compound 0.316 µM
[30] = second compound 10 µM, first compound 1 µM

SMILES: O=C(C=Cn1cnc(-c2cc(C(F)(F)F)cc(C(F)(F)F)c2)n1)NNc1cnccn1 + NC1CC1c1ccc(-c2cccc(O)c2)cc1
- IC50 (second compound 0.1 µM): 78 nM
- IC50 (second compound 0.316 µM): 78.6 nM
- IC50 (second compound 1 µM): 83 nM
- IC50 (second compound 3.16 µM): 86 nM
- IC50 (second compound 10 µM): 109 nM
- viability, T/C [1]: 96.7%
- viability, T/C [2]: 97.2%
- viability, T/C [3]: 77.9%
- viability, T/C [4]: 42.8%
- viability, T/C [5]: 16.4%
- viability, T/C [6]: 11.7%
- viability, T/C [7]: 105%
- viability, T/C [8]: 104%
- viability, T/C [9]: 81.8%
- viability, T/C [10]: 42%
- viability, T/C [11]: 16.4%
- viability, T/C [12]: 11.3%
- viability, T/C [13]: 97.5%
- viability, T/C [14]: 103%
- viability, T/C [15]: 83.1%
- viability, T/C [16]: 44.1%
- viability, T/C [17]: 16.7%
- viability, T/C [18]: 12.9%
- viability, T/C [19]: 97.1%
- viability, T/C [20]: 99.5%
- viability, T/C [21]: 78.7%
- viability, T/C [22]: 46.9%
- viability, T/C [23]: 18.2%
- viability, T/C [24]: 14.1%
- viability, T/C [25]: 96%
- viability, T/C [26]: 92.4%
- viability, T/C [27]: 81.1%
- viability, T/C [28]: 53.5%
- viability, T/C [29]: 22.8%
- viability, T/C [30]: 18.4%

SMILES: COc1cc(C2c3cc4c(cc3C(OC3OC5COC(C)OC5C(O)C3O)C3COC(=O)C23)OCO4)cc(OC)c1O (stereo not given) + NC1CCC(NC2CC2c2ccccc2)CC1
- IC50 (second compound 0.1 µM): 61.4 nM
- IC50 (second compound 0.316 µM): 49.2 nM
- IC50 (second compound 1 µM): 48.1 nM
- IC50 (second compound 3.16 µM): 50.9 nM
- IC50 (second compound 10 µM): 43.9 nM
- viability, T/C (second compound 0.1 µM, first compound 0.00949 µM): 91.7%
- viability, T/C (second compound 0.1 µM, first compound 0.03 µM): 79.6%
- viability, T/C (second compound 0.1 µM, first compound 0.0949 µM): 31.1%
- viability, T/C (second compound 0.1 µM, first compound 0.3 µM): 23.5%
- viability, T/C (second compound 0.1 µM, first compound 0.949 µM): 12.2%
- viability, T/C (second compound 0.1 µM, first compound 3 µM): 11.8%
- viability, T/C (second compound 0.316 µM, first compound 0.00949 µM): 89%
- viability, T/C (second compound 0.316 µM, first compound 0.03 µM): 68.6%
- viability, T/C (second compound 0.316 µM, first compound 0.0949 µM): 24.9%
- viability, T/C (second compound 0.316 µM, first compound 0.3 µM): 22.3%
- viability, T/C (second compound 0.316 µM, first compound 0.949 µM): 19.2%
- viability, T/C (second compound 0.316 µM, first compound 3 µM): 10.7%
- viability, T/C (second compound 1 µM, first compound 0.00949 µM): 91.7%
- viability, T/C (second compound 1 µM, first compound 0.03 µM): 66.4%
- viability, T/C (second compound 1 µM, first compound 0.0949 µM): 26%
- viability, T/C (second compound 1 µM, first compound 0.3 µM): 22%
- viability, T/C (second compound 1 µM, first compound 0.949 µM): 14.4%
- viability, T/C (second compound 1 µM, first compound 3 µM): 18.9%
- viability, T/C (second compound 3.16 µM, first compound 0.00949 µM): 94.5%
- viability, T/C (second compound 3.16 µM, first compound 0.03 µM): 64.8%
- viability, T/C (second compound 3.16 µM, first compound 0.0949 µM): 29.7%
- viability, T/C (second compound 3.16 µM, first compound 0.3 µM): 29.5%
- viability, T/C (second compound 3.16 µM, first compound 0.949 µM): 18.2%
- viability, T/C (second compound 3.16 µM, first compound 3 µM): 13.7%
- viability, T/C (second compound 10 µM, first compound 0.00949 µM): 82.7%
- viability, T/C (second compound 10 µM, first compound 0.03 µM): 62.5%
- viability, T/C (second compound 10 µM, first compound 0.0949 µM): 24.3%
- viability, T/C (second compound 10 µM, first compound 0.3 µM): 23.4%
- viability, T/C (second compound 10 µM, first compound 0.949 µM): 18.1%
- viability, T/C (second compound 10 µM, first compound 3 µM): 14.2%

SMILES: Nc1ncn(C2CC(O)C(CO)O2)c(=O)n1 (stereo not given) + NC1CCC(NC2CC2c2ccccc2)CC1
- IC50 (second compound 0.1 µM): > 1000 nM
- IC50 (second compound 0.316 µM): > 1000 nM
- IC50 (second compound 1 µM): > 1000 nM
- IC50 (second compound 3.16 µM): > 1000 nM
- IC50 (second compound 10 µM): > 1000 nM
- viability, T/C [1]: 104%
- viability, T/C [2]: 109%
- viability, T/C [3]: 99.7%
- viability, T/C [4]: 97.5%
- viability, T/C [5]: 98.7%
- viability, T/C [6]: 96.2%
- viability, T/C [7]: 103%
- viability, T/C [8]: 98.8%
- viability, T/C [9]: 99.8%
- viability, T/C [10]: 98.5%
- viability, T/C [11]: 92.5%
- viability, T/C [12]: 86.6%
- viability, T/C [13]: 102%
- viability, T/C [14]: 109%
- viability, T/C [15]: 100%
- viability, T/C [16]: 97.9%
- viability, T/C [17]: 93.5%
- viability, T/C [18]: 92.2%
- viability, T/C [19]: 98.6%
- viability, T/C [20]: 104%
- viability, T/C [21]: 102%
- viability, T/C [22]: 97.6%
- viability, T/C [23]: 92.6%
- viability, T/C [24]: 95.8%
- viability, T/C [25]: 99.3%
- viability, T/C [26]: 100%
- viability, T/C [27]: 96.7%
- viability, T/C [28]: 106%
- viability, T/C [29]: 92.8%
- viability, T/C [30]: 97.1%
